“Also recorded” adds a separate entry of the source.
Columns and labels:
Assay type in all cases: cell-based, human
[1] = system: TNFR1 ectodomain shedding in NCI-H292 cells; test: TNFR1 ectodomain shedding assay (sTNFR1 sandwich ELISA of cell culture supernatants); settings: for sTNFR1 in cell culture supernatant following PMA treatment: 24 hours
Experimental: The amount of TNFR1 ectodomain shedding occurring in each of these cell lines is depicted in FIG. 8. The levels of sTNFR1 ectodomain in cell culture supernatants from these cell lines were assayed using a commercially available sandwich-enzyme-linked immunosorbent assay (ELISA) technique (R & D Systems) with a lower limit of detection of 7.8 pg/ml.
Following the introduction and selection of these constructs in the host cell lines, the amount of TNFR1 ectodomain shedding occurring in each of the lines was determined by measuring the levels of sTNFR1 ectodomain in cell culture supernatants using a commercially available sandwich-enzyme-linked immunosorbent assay (ELISA) technique (R & D Systems) with a lower limit of detection of 7.8 pg/ml.
The amount of TNFR1 ectodomain shedding occurring in each of the stably transfected cell lines described in Example 9 was assessed. The levels of sTNFR1 ectodomain in cell culture supernatants from these cell lines were assayed by a commercially available sandwich-enzyme-linked immunosorbent assay (ELISA) technique (R & D Systems) with a lower limit of detection of 7.8 pg/ml. The protocol used was according to the manufacturer's instructions. The results of this assay are depicted in FIG. 8 as the mean of 5 independent experiments, with accompanying SEM (standard error of the mean) indicated above the bar.
A similar experiment analyzing the ability of ARTS-1 overexpression to potentiate the cleavage and shedding of TNFR ectodomain from the surface of NCI-H292 cells in response to PMA stimulation using these same cell lines is shown in FIG. 9.
This assay was further used to measure the sTNFR1 ectodomain shedding activity of ARTS-1 peptidase/protease catalytic mutants. The construction of these mutations (and resulting mutant cell lines) are described in Example 10. The ability of theses mutants to regulate sTNFR1 shedding was ascertained by measuring the concentration of sTNFR1 in the cell culture supernatant as described above in this Example.
Results from a second screening method are illustrated in FIG. 14, Panel B. In this screening method, cultured human NCI-H292 pulmonary mucoepidermoid carcinoma cells were again exposed to a test compound, PMA, at a concentration of 0.1 μM. Culture medium supernatant was collected from the cultures at intervals between 0 and 24 hours post treatment. The samples were analyzed by the TNFR1 ectodomain shedding assay using an ELISA as described in Example 11. In this assay, anti-sTNFR1 antibody was used to quantitate the concentrations of sTNFR1 in the cell culture supernatants. […] Thus, this screening method also identified a compound that is a candidate for further drug development.

[2] = system: ARTS-1 protein in NCI-H292 cells; test: Drug screening: ARTS-1 protein expression by Western immunoblot of membrane protein fractions; settings: 0.1 μM PMA, 0 to 24 hours, membrane protein fraction
Experimental: In another embodiment of the screening method of the present invention, Western immunoblotting is used to assess the levels of ARTS-1 protein following exposure of a cell culture to a test compound. In this embodiment, cultured cells were exposed to a test compound, in this case, 4b-phorbol 12-myristate 13-acetate (PMA), and samples of tissue were collected at 0, 2, 8 and 24 hours following the exposure. Membrane proteins were isolated from these cells and subjected to Western immunoblot analysis, as described in Examples 4 and 5, using antiserum specific for the ARTS-1 protein. […] It is contemplated that compounds that can upregulate ARTS-1 protein levels are therapeutically advantageous, as such compounds can suppress a proinflammatory immune response by enhancing receptor ectodomain shedding. However, an understanding of the mechanism(s) is not required in order to use the present invention. […]
In the first method, cultured human NCI-H292 pulmonary mucoepidermoid carcinoma cells were exposed to a test compound, in this case, 4b-phorbol 12-myristate 13-acetate (PMA) at a concentration of 0.1 μM. […] The protein samples were analyzed in a Western immunoblot using the anti-ARTS-1 antiserum at the primary detection antibody, as described in Examples 4 and 5. The protein fractions were analyzed in duplicate, and the relative densitometry units for each lane are shown beneath the columns. […]

[3] = system: membrane-associated TNFR1 in NCI-H292 cells; test: Membrane-associated TNFR1 by Western immunoblot of crude membrane fractions of stably transfected cells
Experimental: The degree of TNFR1 ectodomain shedding as a function of ARTS-1 protein expression was also assessed indirectly by determining the relative amounts of membrane-bound TNFR1 fragment in each of the stably transfected cell lines described above using the Western immunoblotting technique described in Example 5. Crude membrane fractions from the stably transfected NCI-H292 cells described in Example 9 were prepared and resolved by SDS-PAGE and analyzed by Western immunoblotting using a murine anti-human TNFR1 monoclonal primary antibody (R & D System) which detects the membrane fragment of the TNF receptor.
The degree of TNFR1 ectodomain shedding as a function of ARTS-1 protein expression was also indirectly assessed by determining the relative amounts of membrane-bound TNFR1 fragment in each of the stably transfected cell lines described in Example 9 using Western immunoblotting.
Crude membrane fractions from the stably transfected NCI-H292 cells described in Example 9 were prepared and protein concentrations were quantitated, as described above. Samples from these membrane-derived protein preparations were resolved by SDS-PAGE and analyzed by Western immunoblotting as described above in Example 5 using a murine anti-human TNFR1 monoclonal primary antibody which detected the membrane fragment of the receptor (R & D System). […]

Question: Which results are given for `CCCCCCCCCCCCCC(=O)O[C@@H]1[C@@H](C)[C@@]2(O)[C@@H](C=C(CO)C[C@]3(O)C(=O)C(C)=C[C@@H]23)[C@@H]2C(C)(C)[C@]12OC(C)=O` [PMA, 4b-phorbol 12-myristate 13-acetate]?
Answer: sTNFR1 in cell culture supernatant following PMA treatment ([1]; 0.1 μM PMA, NCI-H292 cell line containing only the empty pTarget vector): 415.3 ± 4.5 pg/mL; sTNFR1 in cell culture supernatant following PMA treatment ([1]; 0.1 μM PMA, NCI-H292 cell line overexpressing the ARTS-1 cDNA): 914.2 ± 9.5 pg/mL; sTNFR1 shedding compared to a control culture ([1]; NCI-H292 cells, 0.1 μM PMA, over the course of 24 hours, n=5, P<0.05): increase in sTNFR1 shedding; ARTS-1 protein expression [2]: upregulation of ARTS-1 protein expression; also recorded: increase in ARTS-1 protein expression

B1: ARTS-1: aminopeptidase regulator of type I, 55 kDa tumor necrosis factor receptor ectodomain shedding; 941 amino acids, SEQ ID NO:2; overexpressed from pTarget (protein, listed as Homo sapiens)
chain: MVFLPLKWSLATMSFLLSSLLALLTVSTPSWCQSTEASPKRSDGTPFPWNKIRLPEYVIPVHYDLLIHANLTTLTFWGTTKVEITASQPTSTIILHSHHLQISRATLRKGAGERLSEEPLQVLEHPRQEQIALLAPEPLLVGLPYTVVIHYAGNLSETFHGFYKSTYRTKEGELRILASTQFEPTAARMAFPCFDEPAFKASFSIKIRREPRHLAISNMPLVKSVTVAEGLIEDHFDVTVKMSTYLVAFIISDFESVSKITKSGVKVSVYAVPDKINQADYALDAAVTLLEFYEDYFSIPYPLPKQDLAAIPDFQSGAMENWGLTTYRESALLFDAEKSSASSKLGITMTVAHELAHQWFGNLVTMEWWNDLWLNEGFAKFMEFVSVSVTHPELKVGDYFFGKCFDAMEVDALNSSHPVSTPVENPAQIREMFDDVSYDKGACILNMLREYLSADAFKSGIVQYLQKHSYKNTKNEDLWDSMASICPTDGVKGMDGFCSRSQHSSSSSHWHQEGVDVKTMMNTWTLQKGFPLITITVRGRNVHMKQEHYMKGSDGAPDTGYLWHVPLTFITSKSDMVHRFLLKTKTDVLILPEEVEWIKFNVGMNGYYIVHYEDDGWDSLTGLLKGTHTAVSSNDRASLINNAFQLVSIGKLSIEKALDLSLYLKHETEIMPVFQGLNELIPMYKLMEKRDMNEVETQFKAFLIRLLRDLIDKQTWTDEGSVSERMLRSQLLLLACVHNYQPCVQRAEGYFRKWKESNGNLSLPVDVTLAVFAVGAQSTEGWDFLYSKYQFSLSSTEKSQIEFALCRTQNKEKLQWLLDESFKGDKIKTQEFPQILTLIGRNPVGYPLAWQFLRKNWNKLVQKFELGSSSIAHMVMGTTNQFSTRTRLEEVKGFFSSLKENGSQLRCVQQTIETIEENIGWMDKNFDKIRVWLQSEKLERM
notes: aminopeptidase regulator of type I, 55 kDa tumor necrosis factor receptor ectodomain shedding; overexpressed from pTarget
Question: Which results are given for B1?
Answer: increase in sTNFR1 shedding ([1]; overexpression of ARTS-1 protein in stably transfected NCI-H292 cells vs Mock or WT controls): approximately 200%; level of sTNFR1 in cell culture supernatant compared to control cell lines (WT, Mock) ([1]; stably transfected NCI-H292 cell lines, mean of 5 independent experiments): significant increase; also recorded: significantly elevated level of sTNFR1; membrane-associated TNFR1 relative to WT or Mock cell lines [3]: decrease
